# In US20060189642A1, “Synergistic combination comprising roflumilast and an anticholinergic agent selected from ipratropium, oxitropium and tiotropium salts for the treatment of respiratory diseases” (ALTANA PHARMA AG, priority 2003, published 2006):
# System: methacholine-induced bronchoconstriction in guinea pigs
# Assay: Inhibition of methacholine-induced bronchoconstriction in anaesthetized, mechanically ventilated guinea pigs
# Format: in vivo, guinea pig
# Procedure: Inhibition of Methacholine-induced Bronchoconstriction in Guinea Pigs by ROFLUMILAST in combination with tiotropium-bromide
# To assess the inhibitory effect of tiotropium-bromide, ROFLUMILAST, and the combination of both compounds on methacholine-induced bronchoconstriction in anaesthetized, mechanically ventilated guinea pigs.
# Male Dunkin Hartley guinea pigs, body weight 350-450 g when performing the experiments.
# 75 min before methacholine-induced bronchospasm (at −75 min) animals were anaesthetized with urethane i.p. (1.2 g/kg). At −5 min for i.v. injections the right jugular vein and for ventilation the trachea was cannulated. At −45 min NaCl 0.9% or tiotropium-bromide was administered i.v. (1 μg/kg). At −30 min lactose (10 mg/kg) or ROFLUMILAST (4 mg/kg) mixed with lactose was administered intratracheally by a dry powder aerolizer. At −10 min pancuronium-bromide (1.5 mg/kg) was administered i.v. to abolish spontaneous breathing. Animals were mechanically ventilated with 60 breath/min and a tidal volume of 7 ml/kg. Dynamic lung compliance (COM) and airway conductance (CON) were calculated with the help of a computer system from airflow and ventilation pressure signals. At t=0 min methacholine was administered i.v. (60 μg/kg) to induce Bronchoconstriction.
# COM and CON were determined up to 120 s after methacholine-induced bronchospasm. AUCs for 0 to 120s were determined. Inhibition was calculated based on the AUC data. Data are shown as mean±SEM. Results were taken to be significant if p<0.05 versus placebo (ANOVA and Dunnett's multiple comparison test)
# [1] = male Dunkin Hartley guinea pigs, methacholine 60 μg/kg i.v., tiotropium-bromide 1 μg/kg i.v. at -45 min, ROFLUMILAST 4 mg/kg intratracheally at -30 min, inhibition versus placebo
smiles,measurement,setting,value
C[N+]1(C)[C@@H]2C[C@@H](OC(=O)C(O)(c3cccs3)c3cccs3)C[C@H]1[C@@H]1O[C@@H]12 [tiotropium-bromide],"Inhibition of methacholine-induced airway conductance (CON) decrease, based on AUC 0-120 s",[1],5.9%
same,"Inhibition of methacholine-induced dynamic lung compliance (COM) decrease, based on AUC 0-120 s",[1],12%
same,Effect on methacholine-induced bronchospasm (in words),"same doses, significant if p<0.05 versus placebo (ANOVA and Dunnett's test)",no significant effect
